Results from BindingDB's records for patent US11098029 (Merck Sharp & Dohme, 2021).

target: T1, Orexin receptor type 2 (Homo sapiens, UniProt O43614); test: Receptor Activity Assay
T1 sequence (O43614 whole entry): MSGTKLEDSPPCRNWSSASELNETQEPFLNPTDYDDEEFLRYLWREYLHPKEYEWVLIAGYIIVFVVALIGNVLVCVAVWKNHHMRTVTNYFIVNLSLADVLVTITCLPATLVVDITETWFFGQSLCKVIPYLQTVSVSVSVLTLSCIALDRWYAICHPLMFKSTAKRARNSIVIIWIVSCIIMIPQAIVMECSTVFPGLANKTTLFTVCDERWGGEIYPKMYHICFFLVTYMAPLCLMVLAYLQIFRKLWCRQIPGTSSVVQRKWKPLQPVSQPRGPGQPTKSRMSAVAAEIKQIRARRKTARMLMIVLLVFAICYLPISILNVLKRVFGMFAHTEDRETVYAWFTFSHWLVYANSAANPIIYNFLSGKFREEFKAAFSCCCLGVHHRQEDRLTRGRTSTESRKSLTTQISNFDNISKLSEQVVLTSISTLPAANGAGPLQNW
Description: In a typical experiment, the OX1 and OX2 receptor agonist activity is determined in accordance with the following general experimental method.

Going from `CC[C@@H]1C[C@H](NS(C)(=O)=O)[C@H](CO[C@H]2CC[C@@H](c3ccccc3)CC2)N1C(=O)OC` (racemic) [US11098029, Example 43] to `COC(=O)N1[C@H](C)C[C@H](NS(=O)(=O)N(C)CCS(C)(=O)=O)[C@@H]1COC1CCC(c2cccc(F)c2)CC1` (some centres not stated) [US11098029, Example 57], the IC50 falls from 8.1 nM to 1.6 nM (5.1-fold). The second is the more potent here.

Compared with `CCNC(=O)N1[C@H](C)C[C@H](NS(C)(=O)=O)[C@@H]1COC1CCC(C(F)(F)F)CC1` (some centres not stated) [US11098029, Example 2], `COC(=O)N1[C@H](C)C[C@H](NS(=O)(=O)N(C)C)[C@@H]1COC1CCC(C(F)(F)F)CC1` (some centres not stated) [US11098029, Example 11] is 2.3-fold higher in IC50: 117 nM for the first, 264 nM for the second.

First: COC(=O)N1[C@H](C)C[C@H](NS(C)(=O)=O)[C@@H]1COC1CCC(C(C)C)CC1 (some centres not stated) [US11098029, Example 3]
Second: CC(C)OC(=O)N1[C@H](C)C[C@H](NS(C)(=O)=O)[C@@H]1COC1CCC(C(C)C)CC1 (some centres not stated) [US11098029, Example 5]
The IC50 of the first is 12-fold lower: 19.3 nM for the first, 227 nM for the second.

First: CCOC(=O)N1[C@H](C)C[C@H](NS(=O)(=O)N(C)C)[C@@H]1COC1CCC(C(C)C)CC1 (some centres not stated) [US11098029, Example 8]
Second: CC(C)C1CCC(OC[C@H]2[C@@H](NS(=O)(=O)N(C)C)C[C@@H](C)N2C(=O)OCC(F)F)CC1 (some centres not stated) [US11098029, Example 14]
The IC50 of the first is 3.8-fold higher: 9.52 nM for the first, 2.5 nM for the second. The second is the more potent here.

Going from `CC(C)C1CCC(OC[C@H]2[C@@H](NS(C)(=O)=O)C[C@@H](C)N2C(=O)OCC(F)F)CC1` (some centres not stated) [US11098029, Example 9] to `CNS(=O)(=O)N[C@H]1C[C@@H](C)N(C(=O)OCC(F)F)[C@H]1COC1CCC(C(C)C)CC1` (some centres not stated) [US11098029, Example 13], the IC50 falls from 8.57 nM to 1.9 nM (4.5-fold).

Going from `CC(C)C1CCC(OC[C@H]2[C@@H](NS(C)(=O)=O)C[C@@H](C)N2C(=O)OCCF)CC1` (some centres not stated) [US11098029, Example 10] to `COC(=O)N1[C@H](C)C[C@H](NS(C)(=O)=O)[C@@H]1COC1CCC(CC(F)(F)F)CC1` (some centres not stated) [US11098029, Example 12], the IC50 rises from 69.3 nM to 390 nM (5.6-fold).
